Test results taken from paper PMC11740379, “Novel Enyne-Modified 1,4-Thiazepines as Epidermal Growth Factor Receptor Inhibitors: Anticancer and Computational Studies” (ACS Omega, 2024).
Read-outs that look alike come from different tables or passages of the source.

Assays:
[1] = XTT cytotoxicity assay, non-tumorigenic cells; type: cell-based, human; conditions: human, HEK-293 cells (nontumorigenic), read-out: cell viability
Experimental: (§1) Human cell lines for breast cancer (MCF-7), lung cancer (A549), prostate cancer (PC-3), and nontumorigenic HEK-293 were sourced from the Health Protection Agency (U.K.) and the Interlab Cell Line Collection (Italy). The cells were cultured in RPMI medium (Sigma) supplemented with 10% heat-inactivated fetal bovine serum, 1% penicillin, and 1% L-glutamine, and incubated in a humidified CO2 atmosphere at 37 °C.
(§2) To evaluate the cytotoxic effects of TZEPs, which were dissolved in dimethyl sulfoxide (DMSO), the XTT assay (2,3-bis(2-methoxy-4-nitro-5-sulfophenyl)-2H-tetrazolium-5-carboxanilide) was employed. Cells were plated in 96-well plates at a density of 10^4 cells per well and exposed to varying concentrations of TZEPs (ranging from 1 to 250 μM) for 24, 48, and 72 h. Following the incubation, 100 μL of XTT was added to each well, and the plates were incubated for an additional 4 h at 37 °C. The resulting color change was measured by recording the absorbance at 570 nm using a microplate reader (Tecan).
(§3) The IC50 values, which indicate the concentration of the compound required to inhibit 50% of cancer cell proliferation, were determined using Biosoft CalcuSyn 2.1 software. […] Conversely, an SI less than 1 means the drug is more toxic to normal cells than to target cells, which is undesirable in therapeutic contexts. In the literature, a selectivity index of 2 or higher is generally considered significant, implying that the compound selectively targets diseased cells with relatively low toxicity to healthy cells.[15]

[2] = test system: HEK-293 cells; experiment: XTT cytotoxicity assay, non-tumorigenic cells; type: cell-based, human; conditions: Homo sapiens, HEK293; XTT assay; exposure time of the IC50 not stated (24, 48, 72 h tested)
Experimental: as §1, §2, §3

[3] = test system: A549 cells; experiment: XTT cytotoxicity assay, lung cancer cells; type: cell-based, human; conditions: for IC50: A549
Experimental: (§4) The cells were cultured in RPMI medium (Sigma) supplemented with 10% heat-inactivated fetal bovine serum, 1% penicillin, and 1% L-glutamine, and incubated in a humidified CO2 atmosphere at 37 °C.
(§5) To evaluate the cytotoxic effects of TZEPs, which were dissolved in dimethyl sulfoxide (DMSO), the XTT assay (2,3-bis(2-methoxy-4-nitro-5-sulfophenyl)-2H-tetrazolium-5-carboxanilide) was employed. […] Following the incubation, 100 μL of XTT was added to each well, and the plates were incubated for an additional 4 h at 37 °C. The resulting color change was measured by recording the absorbance at 570 nm using a microplate reader (Tecan).
(§6) Conversely, an SI less than 1 means the drug is more toxic to normal cells than to target cells, which is undesirable in therapeutic contexts.

[4] = test system: PC-3 cells; experiment: XTT cytotoxicity assay, prostate cancer cells; type: cell-based, human
Experimental: as §4, §5, §6

[5] = test system: EGFRWT mRNA; experiment: qRT-PCR of EGFR mRNA expression; type: cell-based, human; conditions: vs untreated control
Experimental: To measure the mRNA expression levels of apoptosis-related genes B-cell lymphoma 2 (Bcl-2), Bcl-2-associated X protein (Bax), Cyclin-dependent kinase 2 (CDK2), and Cyclin E, total mRNA was extracted from cells treated with compound 6f using Trizol reagent (Sigma). cDNA was synthesized from the total mRNA using the Qiagen cDNA synthesis kit according to the manufacturer’s instructions. The following primers, each at a concentration of 350 nM, were employed: Bcl-2; forward ([…]), reverse ([…]); Bax; forward ([…]), reverse ([…]); Caspase-8; forward ([…]), reverse ([…]); Caspase-9; forward (TGTCTACGGCACAGATGGA), reverse (GGACTCGTCTTCAGGGGA); EGFRWT: forward ([…]), reverse (CCTGTGCCAGGGACCTTAC−); EGFRT790 M forward ([…]), reverse ([…]); human GAPDH; forward ([…]), reverse (AGATGGTGATGGGCTTCCC). The PCR mix was prepared with 1× buffer containing 0.2 mM dNTPs, 1.6 mM MgCl2, […] of each primer set, cDNA, and 0.25 U Taq polymerase. The PCR conditions were as follows: an initial denaturation at 95 °C for 60 s, followed by 50 cycles of 95 °C for 15 s, 60 °C for 15 s, and 72 °C for 60 s. The cycle threshold (CT) for each replicate was normalized to the average CT of the endogenous control (GAPDH). The relative quantification of gene expression was calculated using the comparative CT method.[17]

[6] = biological target: EGFRT790M kinase (Homo sapiens, UniProt P00533, T790M); experiment: EGFR kinase inhibition assay (HTRF KinEASE-TK); type: biochemical
Chain of EGFRT790M kinase (P00533 25-1210 T790M): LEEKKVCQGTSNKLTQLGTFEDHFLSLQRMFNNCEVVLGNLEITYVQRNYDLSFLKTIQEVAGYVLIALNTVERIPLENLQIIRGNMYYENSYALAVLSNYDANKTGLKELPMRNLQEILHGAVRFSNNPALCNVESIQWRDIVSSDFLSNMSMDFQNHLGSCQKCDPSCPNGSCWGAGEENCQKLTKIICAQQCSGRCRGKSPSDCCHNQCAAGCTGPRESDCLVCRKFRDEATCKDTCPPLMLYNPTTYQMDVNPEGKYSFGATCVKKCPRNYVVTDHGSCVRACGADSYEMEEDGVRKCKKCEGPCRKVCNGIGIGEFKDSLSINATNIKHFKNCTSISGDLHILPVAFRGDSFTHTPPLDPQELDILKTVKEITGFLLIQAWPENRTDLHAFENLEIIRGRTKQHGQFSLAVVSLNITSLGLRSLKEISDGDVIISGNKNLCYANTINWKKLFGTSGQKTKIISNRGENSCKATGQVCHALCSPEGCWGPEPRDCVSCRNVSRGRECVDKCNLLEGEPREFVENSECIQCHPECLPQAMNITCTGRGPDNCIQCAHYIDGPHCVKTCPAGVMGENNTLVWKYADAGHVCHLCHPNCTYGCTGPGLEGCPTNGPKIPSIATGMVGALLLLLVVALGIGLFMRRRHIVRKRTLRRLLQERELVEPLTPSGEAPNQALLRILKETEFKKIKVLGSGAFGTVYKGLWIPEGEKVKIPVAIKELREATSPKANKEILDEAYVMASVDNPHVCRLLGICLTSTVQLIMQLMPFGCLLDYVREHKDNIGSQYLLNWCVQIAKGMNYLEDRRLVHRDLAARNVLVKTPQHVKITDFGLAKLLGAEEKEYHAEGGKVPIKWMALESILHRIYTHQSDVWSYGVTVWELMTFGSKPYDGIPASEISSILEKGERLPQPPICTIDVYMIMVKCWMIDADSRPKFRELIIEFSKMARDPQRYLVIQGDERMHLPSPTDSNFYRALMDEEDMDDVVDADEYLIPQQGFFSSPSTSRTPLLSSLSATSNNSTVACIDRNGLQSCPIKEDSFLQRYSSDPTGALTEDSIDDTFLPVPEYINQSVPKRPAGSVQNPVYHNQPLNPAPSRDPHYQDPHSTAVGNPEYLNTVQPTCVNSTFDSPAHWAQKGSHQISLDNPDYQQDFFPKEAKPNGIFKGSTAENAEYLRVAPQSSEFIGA
Experimental: The inhibitory effects of the target compounds on various EGFR kinases were assessed using a homogeneous time-resolved fluorescence (HTRF) assay, employing the HTRF KinEASE-TK kit (Cat# 62TK0PEC, Cisbio).[18] TZEP7 was tested at a range of diluted concentrations in the presence of 1% dimethyl sulfoxide (DMSO), with the kinase and compounds preincubated for 5 min. The reactions were initiated by adding ATP and TK-substrate-biotin, followed by a 60 min incubation at room temperature. The reactions were then stopped using a stop buffer containing 62.5 nM Strep-XL665 and TK antibody (Ab)-Cryptate. After a 1 h incubation of the plate, readings were taken on a microplate reader under standard HTRF conditions. IC50 values were calculated using GraphPad Prism 5.0 software. Each reaction was duplicated, and at least three independent determinations were conducted. The data were analyzed using GraphPad Prism.

[7] = XTT cytotoxicity assay, non-tumorigenic cells; type: cell-based; conditions: human, HEK-293 cells (nontumorigenic); HEK293, 0.1 μM; read-out: cell viability

Cc1cc(C2=NCC(=CC#Cc3ccccc3)SC(c3ccc(Cl)cc3)=C2)ccc1F [TZEP7]
viability at 1 µM ([1]; HEK293, 1 μM): 57.1%
viability at 10 µM ([1]; HEK293, 10 μM): 44.1%
viability at 50 µM ([1]; HEK293, 50 μM): 31.3%
viability at 100 µM ([1]; HEK293, 100 μM): 24.2%
IC50 [2]: 54.3 ± 0.9 µM
IC50 ([3]; Homo sapiens, XTT assay, exposure time of the IC50 not stated (24, 48, 72 h tested), read-out: IC50, lung cancer (A549)): 12.7 ± 2 µM
IC50 ([3]; Homo sapiens, dose–response curve of Figure 2, read-out: IC50, A549, dose–response curve): 12.1 µM
viability at 0.1 µM ([3]; Homo sapiens, A549, 0.1 μM, read-out: cell viability): 68%
viability at 1 µM ([3]; Homo sapiens, A549, 1 μM, read-out: cell viability): 53%
viability at 10 µM ([3]; Homo sapiens, A549, 10 μM, read-out: cell viability): 40%
viability at 50 µM ([3]; Homo sapiens, A549, 50 μM, read-out: cell viability): 30%
viability at 100 µM ([3]; Homo sapiens, A549, 100 μM, read-out: cell viability): 10%
Selectivity index (SI), lung cancer (A549) ([3]; versus normal cells HEK-293): 4.27
IC50 ([4]; Homo sapiens, PC-3, XTT assay, exposure time of the IC50 not stated (24, 48, 72 h tested), read-out: IC50, prostate cancer (PC-3)): 16.9 ± 1.6 µM
viability at 0.1 µM ([4]; Homo sapiens, PC-3, 0.1 μM, read-out: cell viability): 83%
viability at 1 µM ([4]; Homo sapiens, PC-3, 1 μM, read-out: cell viability): 71%
viability at 10 µM ([4]; Homo sapiens, PC-3, 10 μM, read-out: cell viability): 22%
viability at 50 µM ([4]; Homo sapiens, PC-3, 50 μM, read-out: cell viability): 18%
viability at 100 µM ([4]; Homo sapiens, PC-3, 100 μM, read-out: cell viability): 12%
Selectivity index (SI), prostate cancer (PC-3) ([4]; versus normal cells HEK-293): 3.21
downregulation of EGFRWT mRNA ([5]; A549, 72 h): 4.6 fold
downregulation of EGFRWT mRNA ([5]; MCF-7, 72 h): 3.8 fold
downregulation of EGFRWT mRNA ([5]; PC-3, 72 h): 3.4 fold
IC50 [6]: 0.28 µM
IC50 ([6]; A549 cells): 0.22 µM
IC50 ([6]; MCF-7 cells): 0.29 µM
viability at 0.1 µM [7]: 87.3%
